Tests used:
SETVI = assay: Post-emergence herbicidal action against SETVI; format: in vivo, Setaria viridis; details: application rate 80 g/ha, rated visually after about 3 weeks
Description: (§1) [table] 2. Post-emergence herbicidal action against harmful plants and crop plant compatibility Seeds of monocotyledonous and dicotyledonous weeds and crop plants are placed in sandy loam in plastic or wood-fibre pots, covered with soil and cultivated in a greenhouse under controlled growth conditions. 2 to 3 weeks after sowing, the test plants are treated at the one-leaf stage. The compounds of the invention, formulated in the form of wettable powders (WP) or as emulsion concentrates (EC), are then sprayed onto the green parts of the plants as aqueous suspension or emulsion with addition of 0.5% additive at a water application rate of 600 l/ha (converted). After the test plants have been kept in the greenhouse under optimum growth conditions for about 3 weeks, the activity of the preparations is rated visually in comparison to untreated controls. For example, 100% activity=the plants have died, 0% activity=like control plants.

LOLRI = assay: Post-emergence herbicidal action against LOLRI; format: in vivo, Lolium rigidum; details: application rate 80 g/ha, rated visually after about 3 weeks
Description: as §1

PHBPU = assay: Post-emergence herbicidal action against PHBPU; format: in vivo, Pharbitis purpurea; details: application rate 80 g/ha, rated visually about 3 weeks after treatment
Description: as §1

HORMU = assay: Post-emergence herbicidal action against HORMU; format: in vivo, Hordeum murinum; details: application rate 80 g/ha
Description: as §1

AVEFA = assay: Post-emergence herbicidal action against AVEFA; format: in vivo, Avena fatua; details: application rate 80 g/ha, rated visually after about 3 weeks
Description: as §1

STEME = assay: Post-emergence herbicidal action against STEME; format: in vivo, Stellaria media; details: application rate 80 g/ha, rated visually about 3 weeks after treatment
Description: as §1

AMARE = assay: Post-emergence herbicidal action against AMARE; format: in vivo, Amaranthus retroflexus; details: application rate 80 g/ha, rated visually about 3 weeks after treatment
Description: as §1

VERPE = assay: Post-emergence herbicidal action against VERPE; format: in vivo, Veronica persica; details: application rate 80 g/ha
Description: as §1

ALOMY = assay: Post-emergence herbicidal action against ALOMY; format: in vivo, Alopecurus myosuroides; details: application rate 80 g/ha, rated visually after about 3 weeks
Description: as §1

ECHCG = assay: Post-emergence herbicidal action against ECHCG; format: in vivo, Echinochloa crus-galli; details: application rate 80 g/ha, rated visually after about 3 weeks
Description: as §1

ABUTH = assay: Post-emergence herbicidal action against ABUTH; format: in vivo, Abutilon theophrasti; details: application rate 80 g/ha, rated visually about 3 weeks after treatment
Description: as §1

POLCO = assay: Post-emergence herbicidal action against POLCO; format: in vivo, Polygonum convolvulus; details: application rate 80 g/ha, rated visually about 3 weeks after treatment
Description: as §1

Structure (SMILES) | Herbicidal action against [%] SETVI (SETVI) [%] | Herbicidal action against [%] LOLRI (LOLRI) [%] | Herbicidal action against [%] PHBPU (PHBPU) [%] | Herbicidal action against [%] HORMU (HORMU) [%] | Herbicidal action against [%] AVEFA (AVEFA) [%] | Herbicidal action against [%] STEME (STEME) [%] | Herbicidal action against [%] AMARE (AMARE) [%] | Herbicidal action against [%] VERPE (VERPE) [%] | Herbicidal action against [%] ALOMY (ALOMY) [%] | Herbicidal action against [%] ECHCG (ECHCG) [%] | Herbicidal action against [%] ABUTH (ABUTH) [%] | Herbicidal action against [%] POLCO (POLCO) [%]
C=CC1(C(=O)NC2C=CC(C(=O)NS(=O)(=O)CC(=O)OC)C2)CC(c2cc(F)cc(F)c2)=NO1 (mixture of isomers) [II-18] | 90 | 80 | 80 | 90 | 100 | 80 | 80 | 80 | 100 | 80 | – | –
C=CC1(C(=O)NC2C=CC(C(=O)N3CCCCO3)C2)CC(c2cc(F)cc(F)c2)=NO1 (mixture of isomers) [II-30] | 80 | 90 | – | – | 100 | – | 80 | 80 | 100 | 90 | 80 | 90
O=C(C1C=CC(NC(=O)C2(C(F)(F)F)CC(c3cc(F)cc(F)c3)=NO2)C1)N1CCCO1 (mixture of isomers) [II-32] | 80 | 90 | – | 90 | 90 | 90 | 80 | 80 | 90 | 90 | 80 | 90
C=CC1(C(=O)NC2CC=C(C(=O)NS(N)(=O)=O)C2)CC(c2cc(F)cc(F)c2)=NO1 (mixture of isomers) [IV-10] | – | 90 | 90 | 90 | 90 | – | 80 | – | – | 90 | – | –
C=CC1(C(=O)NC2C=CC(C(=O)NC(C)(C)C(F)(F)F)C2)CC(c2cc(F)cc(F)c2)=NO1 (single isomer, unassigned) [II-24] | – | – | 80 | – | – | – | – | 80 | – | – | – | –
COC(=O)[C@@H]1C=C[C@H](NC(=O)C2(C(F)(F)F)CC(c3ccccc3)=NO2)C1 (some centres unmarked) [Example I-026] | 90 | 90 | 80 | 90 | 100 | 80 | 90 | 80 | 100 | 80 | – | 80
O=C(OCC(F)(F)F)[C@@H]1C=C[C@H](NC(=O)C2(C(F)(F)F)CC(c3ccccc3)=NO2)C1 (some centres unmarked) [Example I-030] | 90 | 100 | 80 | 90 | 100 | – | 90 | 80 | 90 | 80 | – | 90
CC(C)(C)OC(=O)[C@@H]1C=C[C@H](NC(=O)C2(C)CC(c3cccc(C#N)c3)=NO2)C1 (some centres unmarked) [Example I-095] | – | – | 90 | – | – | – | – | 80 | 90 | – | – | 90
C=CC1(C(=O)N[C@H]2C=C[C@H](C(=O)NC(C)(C)C#N)C2)CC(c2cc(F)cc(F)c2)=NO1 (some centres unmarked) [II-19] | – | – | 90 | – | – | – | – | – | – | – | – | –
C=CC1(C(=O)NC2C=CC(C(=O)N3CCCO3)C2)CC(c2cc(F)cc(F)c2)=NO1 (centres unmarked) [II-27] | 80 | 90 | – | 80 | 90 | 90 | 80 | 90 | 90 | 90 | – | 90

— US12319664B2, “Herbicidally active 3-phenylisoxazoline-5-carboxamides of cyclopentenylcarboxylic acid derivatives” (Bayer Aktiengesellschaft, priority 2018, dated 2025)
